What was measured:
[1] = in vivo; cited from earlier work
[2] = system: murine leukaemia P 388/ADR 10; experiment: Evaluation of the increase in cytotoxicity of adriamycin on the line P 388/ADR-10 in vitro (reversion factor); assay type: cell-based; details: for Reversion Factor (RF): adriamycin, P 388/ADR-10, 48 h, TOX = toxic
Procedure: In this study, the cytotoxicity of adriamycin was measured in the absence and in the presence of the reversing compound.
The compounds tested for their capacity to reverse MDR are added at the same time as the cytotoxic agent. The cells are then incubated for 48 hours.

line DC-3F/AD = experiment: Flow cytometry, increase in fluorescence of ADR on the line DC-3F/AD; assay type: cell-based, Chinese Hamster; details: ADR 50 μM, 5 h
[3] = system: Chinese Hamster Pulmonary Line DC-3F/AD; experiment: Increase in the cytotoxicity of actinomycin D on the Chinese hamster pulmonary line DC-3F/AD; assay type: cell-based; details: 4 days;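 also: DC-3F/AD is an extremely resistant cell line whose resistance factor exceeds 10,000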
Excerpt: The cytotoxic agent used was actinomycin D.
Line DC-3F/AD is an extremely resistant line. Its resistance factor is higher than 10,000.

line P 388/ADR 10 = experiment: Flow cytometry, increase in fluorescence of ADR on the line P 388/ADR 10; assay type: cell-based, murine; details: ADR 50 μM, 5 h

COC(=O)[C@H]1[C@H]2C[C@@H]3c4[nH]c5cc(OC)ccc5c4CCN3C[C@H]2C[C@@H](OC(=O)c2cc(OC)c(OC)c(OC)c2)[C@@H]1OC [RESERPINE]
toxicity [1]: high degree of toxicity
activity in reversing resistance in vitro ([2]; P 388/ADR-10, adriamycin): very good activity in vitro
Reversion Factor (RF) ([2]; compound 5 μM): 215.5
Reversion Factor (RF) ([2]; compound 10 μM): 189
Increase in fluorescence of ADR (VAR-MEAN = MN2 - MN1) (line DC-3F/AD; compound 2 μM): 26.18
Increase in fluorescence of ADR (VAR-MEAN = MN2 - MN1) (line DC-3F/AD; compound 5 μM): 29.43
Increase in fluorescence of ADR (VAR-MEAN = MN2 - MN1) (line DC-3F/AD; compound 10 μM): 31.73
Increase in fluorescence of ADR (VAR-MEAN = MN2 - MN1) (line DC-3F/AD; compound 20 μM): 29.95
Reversion Factor (RF) ([3]; compound 2.5 μM): 258
Reversion Factor (RF) ([3]; compound 5 μM): 1085
Reversion Factor (RF) ([3]; compound 10 μM): 1649
Reversion Factor (RF) ([3]; compound 20 μM): 2024
Increase in fluorescence of ADR (VAR-MEAN = MN2 - MN1) (line P 388/ADR 10; compound 2 μM): 73.46
Increase in fluorescence of ADR (VAR-MEAN = MN2 - MN1) (line P 388/ADR 10; compound 5 μM): 80.48
Increase in fluorescence of ADR (VAR-MEAN = MN2 - MN1) (line P 388/ADR 10; compound 10 μM): 91.90
Increase in fluorescence of ADR (VAR-MEAN = MN2 - MN1) (line P 388/ADR 10; compound 20 μM): 85.39

From patent US5225411A, “Disubstituted polymethyleneimines” (priority 1990, dated 1993)
